Experimental data as given in US20100311109A1, “NON-CONTACT METHOD FOR Q[…] IN THE DYNAMICS OF MICROBIAL POPULATIONS” (priority 2009, published 2010).

Tested on: E. coli
Assay: Time-kill study of E. coli exposed to ciprofloxacin, measured by infrared thermography (Energy Number)
Assay type: cell-based, Escherichia coli
Conditions: starting inoculum approx. 2×10^6 CFU/ml, 37° C., 0-24 hours
Method: It was desired to evaluate utility of the system in a real-time method to measure bacterial growth and death as a function of exposure to an antimicrobial. For that purpose, time-kill studies were performed using E. coli cultures, established substantially as set forth in Example 2. A series of microtiter plates were inoculated with an overnight culture of a representative gram-negative E. coli strain to achieve a starting inoculum of approximately 2×10^6 CFU/ml per well. Test wells were exposed to nine concentrations of an antimicrobial agent of a representative fluoroquinolone (ciprofloxacin) ranging from 0- to 32-fold minimum inhibitory concentration (MIC). […] of those treatments (0, […], 1, 2, 4, and 8-fold MIC) were subcultured for determination of viable cell counts. Control wells received no ciprofloxacin. […] Post-imaging, the contents of the designated wells were removed and the number of viable bacteria in each well was determined using drop and filter count methods.
FIGS. 7a and 7b set forth the changes in bacterial viable counts and the Energy Number of the medium over time, respectively. The Energy Number of the medium over time as determined from thermodynamic modeling of the IR images collected by the detector was highly correlated (R^2=0.9891) to the viable counts obtained following 24 hr incubation (see FIG. 7c).

O=C(O)c1cn(C2CC2)c2cc(N3CCNCC3)c(F)cc2c1=O [ciprofloxacin]
IRT time-kill result (Energy Number over time) (highest (16.0 and 32.0-fold MIC) concentration): rapid bacterial killing | IRT time-kill result (Energy Number over time) (lowest (0.125 and 0.25-fold MIC) concentration): net bacterial growth
